Measured values taken from US9862693B2, “Compounds and methods of treating cancer” (The Regents of the University of California, priority 2012, dated 2018).
“Also recorded” adds a separate entry of the source. Counter-ions that a name gives are not always drawn.

What was measured:
HCC1937 = assay: MTS cell number assay (CellTiter 96), TNBC cells; type: cell-based; conditions: 1 mM, 72 hours, MTS method
Method: (§1) FIGS. 2A-2D. Metformin analogues inhibit growth/survival of triple negative breast cancer cells. MDA-MB-231 (FIG. 2A), HCC38 (FIG. 2B), HCC1937 (FIG. 2C) and HCC1806 (FIG. 2D) cells were cultured in medium containing 1% fetal bovine serum and increasing concentrations of metformin and analogues JD001-JD009 (0.1, 1 and 5 mM). After 3 days, MTS assay was performed. The percentage of surviving cells relative to controls, defined as 100% survival, was determined by the MTS assay.
(§2) Cells were incubated in the presence of vehicle, metformin or metformin analogues for 72 hours in their respective media. After treatment cell numbers were determined with the MTS method using the CellTiter 96 Aqueous Non-Radioactive Cell Proliferation Assay (Promega). Numbers express percentage of vehicle treated controls at 1 mM concentration metformin or metformin analogues (JD001-JD009). TNBC: Triple Negative Breast Cancer Cells, ER+BC: Estrogen receptor positive breast cancer.

MDA-MB-231 = assay: MTS cell number assay (CellTiter 96), TNBC cells; type: cell-based; conditions: Homo sapiens, 1 mM, 72 hours, MTS method, read-out: Biodata TNBC MDA-MB-231, cell numbers as percentage of vehicle treated controls
Method: as §1, §2

MCF7 = assay: MTS cell number assay (CellTiter 96), ER+ breast cancer cells; type: cell-based; conditions: Homo sapiens, 1 mM, 72 hours, MTS method, read-out: ER+ BC MCF7, cell numbers as percentage of vehicle treated controls
Method: FIG. 1. Metformin analogues inhibit growth/survival of ER+ MCF7 breast cancer cells. MCF7 cells were cultured in medium containing different concentrations of metformin and analogues (0.1, 1 and 5 mM). After 3 days, the percentage of surviving cells relative to controls, defined as 100% survival, was determined by the MTS assay. Data represents three independent experiments.
Compounds described herein (e.g. metformin derivatives and/or analogues) were tested in human MCF-7 breast cancer cells, a standard ERalpha-positive model of breast malignancy (FIG. 1), and in four different cell lines classified as TNBC, including MDA-MB-231, HCC1937, HCC38 and HCC1806 (FIGS. 2A-2D). […] Experiments were also performed in: 1) a non-small cell lung cancer cell line that is known to be resistant to standard chemotherapy (A549); and 2) a melanoma-like cell model (MDA-MB-435). To find if analogues have effects on normal cells compounds were tested in two different types of cells, human umbilical vein endothelial cells (HUVEC) and human mammary epithelial cells (HMEC). The effects of metformin (MET) were compared with compounds JD001-JD009.
as §2

HMEC = assay: MTS cell number assay (CellTiter 96), normal cells; type: cell-based; conditions: Homo sapiens, 1 mM, 72 hours, MTS method, read-out: Biodata Normal HMEC, cell numbers as percentage of vehicle treated controls
Method: (§3) FIGS. 4A-4B. Effects of metformin and metformin analogues on normal cells. HMEC (FIG. 4A) and HUVEC (FIG. 4B) cells were plated in special media. After 24 hours, cells were treated with increasing concentrations of metformin and analogues JD001-JD009 (0.1, 1 and 5 mM). After 3 days, MTS assay was performed. Survival is expressed as percentage of vehicle treated control. Data represents at least two experiments.
(§4) The effects of compounds described herein (including embodiments) (e.g. metformin analogues) were determined on two types of normal nonmalignant human cells, human umbilical vein endothelial cells (HUVEC) and human mammary epithelial cells (HMEC). There were no significant biologic effects noted on exposure to the metformin analogues.
as §2

HUVEC = assay: MTS cell number assay (CellTiter 96), normal cells; type: cell-based; conditions: Homo sapiens, 1 mM, 72 hours, MTS method, read-out: Biodata Normal HUVEC, cell numbers as percentage of vehicle treated controls
Method: as §3, §4, §2

A549 = assay: MTS cell number assay (CellTiter 96), NSCLC cells; type: cell-based; conditions: Homo sapiens, 1 mM, 72 hours, MTS method, read-out: Biodata extra A549, cell numbers as percentage of vehicle treated controls
Method: (§5) FIGS. 3A-3B. Metformin analogues inhibit survival of non-small cell lung cancer (NSCLC) (FIG. 3A) and melanoma cell lines (FIG. 3B). A549 (NSCLC) and MDA-MB-435 (melanoma) cells were cultured in medium containing 1% fetal bovine serum and increasing concentrations of metformin (MET) and analogues JD001-JD007 (0.1, 1 and 5 mM). After 3 days, MTS assay was performed. Survival is expressed as percentage of control defined at 100%.
as §2

MDA-MB-435 = assay: MTS cell number assay (CellTiter 96), melanoma cells; type: cell-based; conditions: 1 mM, 72 hours, MTS method
Method: as §5, §2

MCF-7 cells = assay: Cell proliferation ELISA, BrdU colorimetric kit; type: cell-based, human; conditions: 0.1 mM and 1 mM, BrdU incorporation, 1% FBS, P<0.01
Method: FIGS. 6A-6C. […] Proliferation was assessed using cell proliferation ELISA, BrdU colorimetric kit (Roche). Cells were counted using a hemocytometer and plated. After 24 hrs, cells were treated with metformin and analogs JD003 and JD004 at 0.1 mM and 1 mM doses using phenol-red free medium with 1% FBS. After 48 hr, BrDU labeling solution was added and incubated for 24 h. Proliferation was assessed using BrDU incorporation by ELISA during DNA synthesis in proliferating cells. Data shown as % control (mean±SE) (n=3 experiments).
We hypothesize that metformin analogs can be prepared with enhanced anticancer activity and minimal non-target toxicity. […] Human pancreatic cancer cells PANC-1, were grown in DMEM with 2 mM glutamine, 1 mM sodium pyruvate, 100 units/mL penicillin, 100 μg/mL streptomycin and 10% FBS at 37 C in a humidified atmosphere with 10% CO2. Then, effects of treatment with metformin or analog JD003 on cell proliferation in vitro were tested. […] In contrast, minimal antiproliferative effects are detected in nonmalignant human epithelial cells. […]
Cell proliferation screening assays were done using cell proliferation ELISA, BrdU colorimetric kit (Roche). Cells were counted using a hemocytometer and plated in 96-well plates. […] Cell proliferation were quantitated based on measures of BrDU incorporation (by ELISA) during DNA synthesis in proliferating cells. […] Results were expressed as mean±SE. […]

HCC1806 = assay: MTS cell number assay (CellTiter 96), TNBC cells; type: cell-based; conditions: 1 mM, 72 hours, MTS method
Method: as §1, §2

HCC38 = assay: MTS cell number assay (CellTiter 96), TNBC cells; type: cell-based; conditions: 1 mM, 72 hours, MTS method
Method: as §1, §2

SMILES	Biodata TNBC HCC1937, cell numbers as percentage of vehicle treated controls (HCC1937)	viability at 1000 µM (MDA-MB-231)	viability at 1000 µM (MCF7)	viability at 1000 µM (HMEC)	viability at 1000 µM (HUVEC)	viability at 1000 µM (A549)	Biodata extra MDA-MB-435, cell numbers as percentage of vehicle treated controls (MDA-MB-435)	Blocking proliferation of MCF-7 cells compared with metformin (MCF-7 cells)	Biodata TNBC HCC1806, cell numbers as percentage of vehicle treated controls (HCC1806)	Biodata TNBC HCC38, cell numbers as percentage of vehicle treated controls (HCC38)
CN1CCN(C(=N)NC(=N)N2CCN(C)CC2)CC1 [JD004, N-(Imino(4-methylpiperazin-1-yl)methyl)-4-methylpiperazine-1-carboximidamide hydro-chloride]	64 percentage of vehicle treated controls	89.2%	84.4%	113%	89.1%	74.3%	59.6 percentage of vehicle treated controls	more effective in blocking proliferation of MCF-7 cells; also recorded: enhanced antiproliferative activity in breast cancer cells as compared to metformin	–	–
CCCN(C)C(=N)NC(=N)N [JD008, N-Methyl-N-propylbiguanide hydrochloride]	–	38.6%	52.2%	70.9%	37.7%	–	–	–	52.7 percentage of vehicle treated controls	55.6 percentage of vehicle treated controls
CN(C)C(=N)NC(=N)N1CCOCC1 [JD007, N—(N,N-Dimethylcarbamimidoyl)morpholine-4-carboximidamide hydrochloride]	–	64.3%	65.8%	105%	112%	82.3%	–	–	65.7 percentage of vehicle treated controls	83.6 percentage of vehicle treated controls
N=C(NC(=N)N1CCCC1)N1CCCCC1 [JD005, N-(Imino(pyrrolidin-1-yl)methyl)piperidine-1-carboximidamide hydrochloride]	15.7 percentage of vehicle treated controls	46.6%	58.2%	67.6%	54.6%	32.4%	42.2 percentage of vehicle treated controls	–	55.8 percentage of vehicle treated controls	43.4 percentage of vehicle treated controls
N=C(NC(=N)N1CCCCC1)N1CCCCC1 [JD002, N-(Imino(piperidin-1-yl)methyl)piperidine-1-carboximidamide hydrochloride]	17.1 percentage of vehicle treated controls	48.5%	46.2%	62.6%	70%	4.6%	39.8 percentage of vehicle treated controls	–	36.4 percentage of vehicle treated controls	44.7 percentage of vehicle treated controls
N=C(NC(=N)N1CCCC1)N1CCCC1 [JD006, N-(Imino(pyrrolidin-1-yl)methyl)pyrrolidine-1-carboximidamide hydrochloride]	–	–	59.7%	96.6%	113%	59.7%	–	–	–	–
CC1CCN(C(=N)NC(=N)N)CC1 [JD009, N-Carbamimidoyl-4-methylpiperidine-1-carboximidamide, hydrochloride]	–	0.3%	52.7%	48.8%	39.5%	–	–	–	7.3 percentage of vehicle treated controls	0 percentage of vehicle treated controls
CON(C)C(=N)NC(=N)N [JD001, N-Methoxyl-N-methylbiguanide hydrochloride]	68.9 percentage of vehicle treated controls	92%	82.3%	101%	84.4%	62.6%	102.1 percentage of vehicle treated controls	–	80.1 percentage of vehicle treated controls	102.5 percentage of vehicle treated controls
